Patent publication US7906507B2, “Oxadiazoanthracene compounds for the treatment of diabetes” (TransTech Pharma, Inc., priority 2008, dated 2011)
pEC50: −log10 of the molar value.

Target: T1, cloned human GLP-1 receptor (Homo sapiens, UniProt P43220)
T1 construct: expressed in transfected cells; host or cells: CHO or HEK-293 cells
Assay: Functional cell-based assay: cAMP functional assay
Conditions: for Emax: 0.5 h, percentage relative to maximal GLP-1-induced cAMP accumulation, na = not active in the assay, read-out: % activation
Procedure: Following overnight incubation of cells, media was removed, and compounds (at concentrations ranging from 0.0001 to 100 μM) were added to monolayer cells in Iscove's modified dulbecco's medium (IMDM), 100 μM RO 20-1724 PDE inhibitor, 0.1% BSA, 2% DMSO in a final volume of 100 μL, and incubated for 30 min at 37° C. 95% O2, 5% CO2 in a humidified incubator. cAMP was quantitated using a homogenous time-resolved fluorescence detection system (cAMP dynamic, CIS bio International).

T1 sequence (P43220 24-463): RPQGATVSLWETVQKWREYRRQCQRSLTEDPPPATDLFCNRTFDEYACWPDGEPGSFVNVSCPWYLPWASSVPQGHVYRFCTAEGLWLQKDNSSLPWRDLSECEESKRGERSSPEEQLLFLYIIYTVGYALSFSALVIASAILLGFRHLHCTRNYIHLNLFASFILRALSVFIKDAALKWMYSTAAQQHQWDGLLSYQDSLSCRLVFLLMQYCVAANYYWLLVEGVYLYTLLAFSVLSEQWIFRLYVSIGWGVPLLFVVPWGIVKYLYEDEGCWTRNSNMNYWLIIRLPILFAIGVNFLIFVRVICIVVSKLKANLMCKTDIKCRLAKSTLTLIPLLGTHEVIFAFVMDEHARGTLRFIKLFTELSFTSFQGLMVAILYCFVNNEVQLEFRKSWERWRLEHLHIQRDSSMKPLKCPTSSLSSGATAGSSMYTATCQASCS

Row | Compound | pEC50 | Emax [%]
1 | N#Cc1ccc(-c2ccc(C[C@H](NC(=O)[C@@H]3Cc4cc5c(cc4CN3S(=O)(=O)c3cccs3)OC(c3ccc(OCc4ccc(Cl)c(Cl)c4)cc3)C(=O)N5)C(=O)O)cc2)cc1 (stereo partly drawn) [Example 32, (S)-3-(4′-Cyano-biphenyl-4-yl)-2-{[(S)-3-[4-(3,4-dichloro-benzyloxy)-phenyl]-2-oxo-6-(thiophene-2-sulfonyl)-2,3,5,6,7,8-hexahydro-1H-4-oxa-1,6-diaza-anthracene-7-carbonyl]-amino}-propionic acid] | 6.15 | 8.3
2 | N#Cc1ccc(-c2ccc(C[C@H](NC(=O)[C@@H]3Cc4cc5c(cc4CN3S(=O)(=O)c3ccccc3)OC(c3ccc(OCc4ccc(Cl)c(Cl)c4)cc3)C(=O)N5)C(=O)O)cc2)cc1 (stereo partly drawn) [Example 14, (S)-2-({(S)-6-Benzenesulfonyl-3-[4-(3,4-dichloro-benzyloxy)-phenyl]-2-oxo-2,3,5,6,7,8-hexahydro-1H-4-oxa-1,6-diaza-anthracene-7-carbonyl}-amino)-3-(4′-cyano-biphenyl-4-yl)-propionic acid] | 6.35 | 77
3 | CC(C)C(=O)N1Cc2cc3c(cc2C[C@H]1C(=O)N[C@@H](Cc1ccc(-c2ccc(C#N)cc2)cc1)C(=O)O)NC(=O)C(c1ccc(OCc2ccc(Cl)c(Cl)c2)cc1)O3 (stereo partly drawn) [Example 13, (S)-3-(4′-Cyano-biphenyl-4-yl)-2-({(S)-3-[4-(3,4-dichloro-benzyloxy)-phenyl]-6-isobutyryl-2-oxo-2,3,5,6,7,8-hexahydro-1H-4-oxa-1,6-diaza-anthracene-7-carbonyl}-amino)-propionic acid] | 5.92 | 59
4 | Cn1ccnc1CN1Cc2cc3c(cc2C[C@H]1C(=O)N[C@@H](Cc1ccc(-c2ccc(C#N)cc2)cc1)C(=O)O)NC(=O)C(c1ccc(OCc2ccc(Cl)c(Cl)c2)cc1)O3 (stereo partly drawn) [Example 48, (S)-3-(4′-Cyano-biphenyl-4-yl)-2-{[(S)-3-[4-(3,4-dichloro-benzyloxy)-phenyl]-6-(1-methyl-1H-imidazol-2-ylmethyl)-2-oxo-2,3,5,6,7,8-hexahydro-1H-4-oxa-1,6-diaza-anthracene-7-carbonyl]-amino}-propionic acid] | 6.05 | 64
5 | N#Cc1ccc(-c2ccc(C[C@H](NC(=O)[C@@H]3Cc4cc5c(cc4CN3Cc3ncc[nH]3)OC(c3ccc(OCc4ccc(Cl)c(Cl)c4)cc3)C(=O)N5)C(=O)O)cc2)cc1 (stereo partly drawn) [Example 47, (S)-3-(4′-Cyano-biphenyl-4-yl)-2-{[(S)-3-[4-(3,4-dichloro-benzyloxy)-phenyl]-6-(1H-imidazol-2-ylmethyl)-2-oxo-2,3,5,6,7,8-hexahydro-1H-4-oxa-1,6-diaza-anthracene-7-carbonyl]-amino}-propionic acid] | 5.92 | 29
6 | N#Cc1ccc(-c2ccc(C[C@H](NC(=O)[C@@H]3Cc4cc5c(cc4CN3C(=O)[C@@H]3CCCO3)OC(c3ccc(OCc4ccc(Cl)c(Cl)c4)cc3)C(=O)N5)C(=O)O)cc2)cc1 (stereo partly drawn) [Example 5, (S)-3-(4′-Cyano-biphenyl-4-yl)-2-{[(S)-3-[4-(3,4-dichloro-benzyloxy)-phenyl]-2-oxo-6-((S)-tetrahydro-furan-2-carbonyl)-2,3,5,6,7,8-hexahydro-1H-4-oxa-1,6-diaza-anthracene-7-carbonyl]-amino}-propionic acid] | 4.52 | 18
7 | Cc1ccccc1S(=O)(=O)N1Cc2cc3c(cc2C[C@H]1C(=O)N[C@@H](Cc1ccc(-c2ccc(C#N)cc2)cc1)C(=O)O)NC(=O)C(c1ccc(OCc2ccc(Cl)c(Cl)c2)cc1)O3 (stereo partly drawn) [Example 37, (S)-3-(4′-Cyano-biphenyl-4-yl)-2-{[(S)-3-[4-(3,4-dichloro-benzyloxy)-phenyl]-2-oxo-6-(toluene-2-sulfonyl)-2,3,5,6,7,8-hexahydro-1H-4-oxa-1,6-diaza-anthracene-7-carbonyl]-amino}-propionic acid] | 6.31 | 32
8 | N#Cc1ccc(-c2ccc(C[C@H](NC(=O)[C@@H]3Cc4cc5c(cc4CN3Cc3ccccc3Cl)OC(c3ccc(OCc4ccc(Cl)c(Cl)c4)cc3)C(=O)N5)C(=O)O)cc2)cc1 (stereo partly drawn) [Example 42, (S)-2-({(S)-6-(2-Chloro-benzyl)-3-[4-(3,4-dichloro-benzyloxy)-phenyl]-2-oxo-2,3,5,6,7,8-hexahydro-1H-4-oxa-1,6-diaza-anthracene-7-carbonyl}-amino)-3-(4′-cyano-biphenyl-4-yl)-propionic acid] | 6.00 | 56
9 | N#Cc1ccc(-c2ccc(C[C@H](NC(=O)[C@@H]3Cc4cc5c(cc4CN3C(=O)c3ccco3)OC(c3ccc(OCc4ccc(Cl)c(Cl)c4)cc3)C(=O)N5)C(=O)O)cc2)cc1 (stereo partly drawn) [Example 20, (S)-3-(4′-Cyano-biphenyl-4-yl)-2-{[(S)-3-[4-(3,4-dichloro-benzyloxy)-phenyl]-6-(furan-2-carbonyl)-2-oxo-2,3,5,6,7,8-hexahydro-1H-4-oxa-1,6-diaza-anthracene-7-carbonyl]-amino}-propionic acid] | 6.38 | 83.5
10 | N#Cc1ccc(-c2ccc(C[C@H](NC(=O)[C@@H]3Cc4cc5c(cc4CN3Cc3ccccc3F)OC(c3ccc(OCc4ccc(Cl)c(Cl)c4)cc3)C(=O)N5)C(=O)O)cc2)cc1 (stereo partly drawn) [Example 41, (S)-3-(4′-Cyano-biphenyl-4-yl)-2-{[(S)-3-[4-(3,4-dichloro-benzyloxy)-phenyl]-6-(2-fluoro-benzyl)-2-oxo-2,3,5,6,7,8-hexahydro-1H-4-oxa-1,6-diaza-anthracene-7-carbonyl]-amino}-propionic acid] | 6.37 | 42
11 | N#Cc1ccc(-c2ccc(C[C@H](NC(=O)[C@@H]3Cc4cc5c(cc4CN3C(=O)OC3CCOCC3)OC(c3ccc(OCc4ccc(Cl)c(Cl)c4)cc3)C(=O)N5)C(=O)O)cc2)cc1 (stereo partly drawn) [Example 11, (S)-7-[(S)-1-Carboxy-2-(4′-cyano-biphenyl-4-yl)-ethylcarbamoyl]-3-[4-(3,4-dichloro-benzyloxy)-phenyl]-2-oxo-1,2,3,5,7,8-hexahydro-4-oxa-1,6-diaza-anthracene-6-carboxylic acid tetrahydro-pyran-4-yl ester] | 6.22 | 71

Continued, values first:

Row | pEC50 | Emax [%] | Compound
12 | 6.07 | 29 | N#Cc1ccc(-c2ccc(C[C@H](NC(=O)[C@@H]3Cc4cc5c(cc4CN3C(=O)c3ccccc3)OC(c3ccc(OCc4ccc(Cl)c(C(F)(F)F)c4)cc3)C(=O)N5)C(=O)O)cc2)cc1 (stereo partly drawn) [Example 61, (S)-2-({(S)-6-Benzoyl-3-[4-(4-chloro-3-trifluoromethyl-benzyloxy)-phenyl]-2-oxo-2,3,5,6,7,8-hexahydro-1H-4-oxa-1,6-diaza-anthracene-7-carbonyl}-amino)-3-(4′-cyano-biphenyl-4-yl)-propionic acid]
13 | 6.24 | 51 | CN1C(=O)C(c2ccc(OCc3ccc(Cl)c(Cl)c3)cc2)Oc2cc3c(cc21)C[C@@H](C(=O)N[C@@H](Cc1ccc(-c2ccc(C#N)cc2)cc1)C(=O)O)N(CC#Cc1ccccc1)C3 (stereo partly drawn) [Example 69, (S)-3-(4′-Cyano-biphenyl-4-yl)-2-{[(S)-3-[4-(3,4-dichloro-benzyloxy)-phenyl]-1-methyl-2-oxo-6-(3-phenyl-prop-2-ynyl)-2,3,5,6,7,8-hexahydro-1H-4-oxa-1,6-diaza-anthracene-7-carbonyl]-amino}-propionic acid]
14 | 5.77 | 53 | CN1C(=O)C(c2ccc(OCc3ccc(Cl)c(Cl)c3)cc2)Oc2cc3c(cc21)C[C@@H](C(=O)N[C@@H](Cc1ccc(-c2ccc(C#N)cc2)cc1)C(=O)O)N(CC1(c2ccccc2)CCCC1)C3 (stereo partly drawn) [Example 77, (S)-3-(4′-Cyano-biphenyl-4-yl)-2-{[(S)-3-[4-(3,4-dichloro-benzyloxy)-phenyl]-1-methyl-2-oxo-6-(1-phenyl-cyclopentylmethyl)-2,3,5,6,7,8-hexahydro-1H-4-oxa-1,6-diaza-anthracene-7-carbonyl]-amino}-propionic acid]
15 | 5.91 | 49 | N#Cc1ccc(-c2ccc(C[C@H](NC(=O)[C@@H]3Cc4cc5c(cc4CN3C(=O)c3ccccn3)OC(c3ccc(OCc4ccc(Cl)c(Cl)c4)cc3)C(=O)N5)C(=O)O)cc2)cc1 (stereo partly drawn) [Example 50, (S)-3-(4′-Cyano-biphenyl-4-yl)-2-{[(S)-3-[4-(3,4-dichloro-benzyloxy)-phenyl]-2-oxo-6-(pyridine-2-carbonyl)-2,3,5,6,7,8-hexahydro-1H-4-oxa-1,6-diaza-anthracene-7-carbonyl]-amino}-propionic acid]
16 | 5.91 | 43 | CC[C@@H](c1ccccc1)N1Cc2cc3c(cc2C[C@H]1C(=O)N[C@@H](Cc1ccc(-c2ccc(Cl)cc2)cc1)C(=O)O)N(C)C(=O)[C@@H](c1ccc(OCc2ccc(Cl)c(Cl)c2)cc1)O3 [Example 90, (S)-3-(4′-Chloro-biphenyl-4-yl)-2-{[(3R,7S)-3-[4-(3,4-dichloro-benzyloxy)-phenyl]-1-methyl-2-oxo-6-((S)-1-phenyl-propyl)-2,3,5,6,7,8-hexahydro-1H-4-oxa-1,6-diaza-anthracene-7-carbonyl]-amino}-propionic acid]
17 | 6.02 | 21 | N#Cc1ccc(-c2ccc(C[C@H](NC(=O)[C@@H]3Cc4cc5c(cc4CN3C(=O)c3cccs3)OC(c3ccc(OCc4cnc(Cl)c(Cl)c4)cc3)C(=O)N5)C(=O)O)cc2)cc1 (stereo partly drawn) [Example 66, (S)-3-(4′-Cyano-biphenyl-4-yl)-2-{[(S)-3-[4-(5,6-dichloro-pyridin-3-ylmethoxy)-phenyl]-2-oxo-6-(thiophene-2-carbonyl)-2,3,5,6,7,8-hexahydro-1H-4-oxa-1,6-diaza-anthracene-7-carbonyl]-amino}-propionic acid]
18 | 5.97 | 11.8 | N#Cc1ccc(-c2ccc(C[C@H](NC(=O)[C@@H]3Cc4cc5c(cc4CN3CC3CC3)OC(c3ccc(OCc4ccc(Cl)c(Cl)c4)cc3)C(=O)N5)C(=O)O)cc2)cc1 (stereo partly drawn) [Example 54, (S)-3-(4′-Cyano-biphenyl-4-yl)-2-({(S)-6cyclopropylmethyl-3-[4-(3,4-dichloro-benzyloxy)-phenyl]-2-oxo-2,3,5,6,7,8-hexahydro-1H-4-oxa-1,6-diaza-anthracene-7-carbonyl}-amino)-propionic acid]
